According to patent US20200115698A1, “PHARMACEUTICAL COMBINATION FOR TREATMENT OF FABRY DISEASE AND USE THEREOF” (MEIJI PHARMACEUTICAL UNIVERSITY, priority 2017, published 2020):

How the values were obtained:
[1] = target: T1, α-NAGA mutant (Homo sapiens, UniProt P17050, A191L/S188E); assay: Heat stability test carried out by measuring enzyme activity; type: biochemical; conditions: 1 or 10 μM DGJ, FIG. 3
T1 sequence (P17050 with tags, fused parts or gaps S188E/A191L): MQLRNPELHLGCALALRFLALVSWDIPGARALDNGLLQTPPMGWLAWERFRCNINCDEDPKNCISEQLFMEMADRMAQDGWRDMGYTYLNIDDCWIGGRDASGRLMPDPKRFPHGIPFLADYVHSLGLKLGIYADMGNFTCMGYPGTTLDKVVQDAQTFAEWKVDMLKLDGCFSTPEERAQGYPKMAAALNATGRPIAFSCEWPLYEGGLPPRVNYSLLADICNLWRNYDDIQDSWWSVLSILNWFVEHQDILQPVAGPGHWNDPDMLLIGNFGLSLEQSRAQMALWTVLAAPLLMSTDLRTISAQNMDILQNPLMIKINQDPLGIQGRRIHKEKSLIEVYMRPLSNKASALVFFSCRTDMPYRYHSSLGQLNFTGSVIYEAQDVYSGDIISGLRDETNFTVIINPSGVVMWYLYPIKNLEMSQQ
Method: 1 μM or 10 μM of DGJ was added to 10 μg/ml of an α-NAGA mutant solution which had been prepared by dissolving an α-NAGA mutant in a 10 mM sodium phosphate buffer (pH 7.5) or a 25 mM sodium acetate buffer (pH 5.2) (the total amount was 100 μl). Then, incubation was carried out at 42° C. for the solution using the 10 mM sodium phosphate buffer (pH 7.5) and at 55° C. for the solution using the 25 mM sodium acetate buffer (pH 5.2). Then, the incubated solution was sampled by 10 μl at points in time which were respectively 0 and 60 minutes after the start of the incubation. Each of the samples thus obtained was immediately added to 40 μl of a 0.1 M phosphate-citrate buffer (pH 4.6) in which a 5 mM substrate was dissolved, and enzyme activity was measured. Remaining activity is indicated based on an assumption that an enzyme activity value after 0 minutes is 100%. FIG. 3 is a view showing a result of heat stability test for confirming inhibitory activity of DGJ with respect to an α-NAGA mutant.

[2] = target: T1, α-NAGA mutant; assay: Screening of inhibitor (2): inhibition of enzyme activity of α-NAGA mutant; type: biochemical; conditions: 0.1, 1, or 10 μM compound, pH 4.6, 37° C., 30 minutes; FIG. 1
Method: The second screening was carried out as follows: DGJ, GBS, N-C-DGJ, N-DGJ, or N-HE-DGJ dissolved in purified water or DMSO was added to 25 ng of an α-NAGA mutant and 4 mM 4-methylumbelliferylα-D-galactopyranoside dissolved in 0.1 M phosphate-citrate buffer (pH 4.6) such that a concentration of DGJ, GBS, N-C-DGJ, N-DGJ, or N-HE-DGJ became 0.1, 1, or 10 μM, and the mixture thus obtained was caused to react at 37° C. for 30 minutes (the total amount was 50 μl). After the reaction was finished, 950 μl of 0.2 M glycine buffer (pH 10.7) was added to stop the reaction. Then, released 4-methylumbelliferone was measured at an excitation wavelength of 355 nm and at a fluorescence wavelength of 460 nm with use of Wallac 1420 ARVO MX Multilabel Counter. Remaining enzyme activity was calculated based on the assumption that an enzyme activity value obtained in a case where purified water or DMSO is added instead of the inhibitor candidate compound is 100%. FIG. 1 is a view illustrating inhibition of enzyme activity of an α-NAGA mutant by DGJ.

[3] = target: T2, recombinant α-GAL (Homo sapiens, UniProt P06280); conditions: simultaneous administration to a patient of Fabry disease; cited from earlier work
T2 sequence (P06280 32-429): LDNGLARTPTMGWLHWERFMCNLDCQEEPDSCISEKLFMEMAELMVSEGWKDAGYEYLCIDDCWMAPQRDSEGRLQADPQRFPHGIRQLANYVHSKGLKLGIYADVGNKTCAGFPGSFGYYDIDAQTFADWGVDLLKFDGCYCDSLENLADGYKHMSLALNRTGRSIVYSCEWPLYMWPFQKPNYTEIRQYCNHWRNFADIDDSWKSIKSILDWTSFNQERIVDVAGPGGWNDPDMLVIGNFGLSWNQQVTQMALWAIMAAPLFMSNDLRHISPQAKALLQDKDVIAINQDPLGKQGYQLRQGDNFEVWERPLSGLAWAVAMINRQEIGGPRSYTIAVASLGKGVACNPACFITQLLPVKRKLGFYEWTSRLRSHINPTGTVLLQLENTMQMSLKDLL

## OCC1NCC(O)C(O)C1O [DGJ, (2R,3S,4R,5S)-2-(hydroxymethyl)piperdine-3,4,5-triol]
[1]; acidic condition pH 5.2, 55° C., higher improvement than at neutral pH
  heat stability of the α-NAGA mutant (remaining activity after 60 minutes): heat stability of the α-NAGA mutant was improved
[1]; neutral condition pH 7.5, 42° C.
  heat stability of the α-NAGA mutant (remaining activity after 60 minutes): heat stability of the α-NAGA mutant was improved
[2]
  inhibition of enzyme activity of an α-NAGA mutant (remaining enzyme activity): had the effect of inhibiting activity of an α-NAGA mutant
[3]
  stabilization of administered recombinant α-GAL in the blood: recombinant α-GAL was stabilized
